# Experimental data: ChEMBL document CHEMBL1145553, “Possible chemical mechanisms underlying the antitumor activity of S-deoxyleinamycin” (Bioorg Med Chem Lett, 2008)
# pIC50: −log10 of the molar value.
# Legend:
# [1] = Cleavage of supercoiled pGL2 basic DNA assessed as number of strand breaks per plasmid at 150 uM in presence of thiol
# [2] = Cleavage of supercoiled pGL2 basic DNA assessed as nicked open circular form DNA level at 150 uM in presence of thiol
# [3] = Cleavage of supercoiled pGL2 basic DNA assessed as number of strand breaks per plasmid at 150 uM
# [4] = Cleavage of thiol-mediated supercoiled pGL2 basic DNA assessed as nicked open circular form DNA level at 150 uM in presence 1 M methanol
# [5] = Cleavage of supercoiled pGL2 basic DNA assessed as nicked open circular form DNA level at 150 uM
# [6] = Cleavage of thiol-mediated supercoiled pGL2 basic DNA assessed as nicked open circular form DNA level at 150 uM in presence 1 M ethanol
# [7] = Cleavage of thiol-mediated supercoiled pGL2 basic DNA assessed as nicked open circular form DNA level at 150 uM in presence 10 mM desferal
# [8] = Cleavage of thiol-mediated supercoiled pGL2 basic DNA assessed as nicked open circular form DNA level at 150 uM in presence […]
# [9] = Cleavage of thiol-mediated supercoiled pGL2 basic DNA assessed as nicked open circular form DNA level at 150 uM in presence 100 ug/ml catalase
# [10] = Cleavage of thiol-mediated supercoiled pGL2 basic DNA assessed as nicked open circular form DNA level at 150 uM in presence 100 ug/ml superoxide dismutase
# [11] = Cleavage of thiol-mediated supercoiled pGL2 basic DNA assessed as nicked open circular form DNA level at 150 uM in presence 50 ug/ml superoxide dismutase
# [12] = Cleavage of thiol-mediated supercoiled pGL2 basic DNA assessed as number of strand breaks per plasmid at 150 uM in presence of 1 M methanol
# [13] = Cleavage of thiol-mediated supercoiled pGL2 basic DNA assessed as number of strand breaks per plasmid at 150 uM in presence of 1 M ethanol
# [14] = Cleavage of thiol-mediated supercoiled pGL2 basic DNA assessed as number of strand breaks per plasmid at 150 uM in presence of 10 mM desferal
# [15] = Cleavage of thiol-mediated supercoiled pGL2 basic DNA assessed as number of strand breaks per plasmid at 150 uM in presence of 10 mM diethylenetriaminepentaacetic acid
# [16] = Cleavage of thiol-mediated supercoiled pGL2 basic DNA assessed as number of strand breaks per plasmid at 150 uM in presence of 1 M DMSO
# [17] = Cleavage of thiol-mediated supercoiled pGL2 basic DNA assessed as number of strand breaks per plasmid at 150 uM in presence of 100 ug/ml catalase
# [18] = Cleavage of thiol-mediated supercoiled pGL2 basic DNA assessed as nicked open circular form DNA level at 150 uM in presence 10 mM diethylenetriaminepentaacetic acid
# HepG2 = assay: Growth inhibition of human HepG2 cells; type: functional
# HeLa = assay: Cytotoxicity against human HeLa S3 cells; type: functional, cell-based
molecule,measurement,setting,value
CC1(O)C(=O)S[S+]([O-])C1(C)C (stereo unspecified),Activity,[1],2.58
same,Activity,[2],92.5%
O=c1ssc2ccccc12,Activity,[1],0.4
same,Activity,[2],33.1%
CC1(C)SSC(=O)C1(C)O (stereo unspecified),Activity,[3],0.2
same,Activity,[1],1.32
same,Activity,[4],27.5%
same,Activity,[5],18.2%
same,Activity,[2],73.1%
same,Activity,[6],19%
same,Activity,[7],25.9%
same,Activity,[8],15.5%
same,Activity,[9],19.3%
same,Activity,[10],100%
same,Activity,[11],100%
same,Activity,[12],0.32
same,Activity,[13],0.21
same,Activity,[14],0.3
same,Activity,[15],0.21
same,Activity,[16],0.17
same,Activity,[17],0.21
same,Activity,[18],19%
N[C@@H](Cc1ccc(N(CCCl)CCCl)cc1)C(=O)O [MELPHALAN],GI50,HepG2,17000 nM
BLEOMYCIN,GI50,HepG2,1000 nM
C/C1=C\[C@@H](O)C(=O)/C=C/C=C\c2csc(n2)[C@@H](C)NC(=O)C[C@@]2(CC1)[S+]([O-])SC(=O)[C@]2(C)O (stereo partly specified) [LEINAMYCIN],pIC50,HeLa,7.57
C/C1=C\[C@@H](O)C(=O)/C=C/C=C\c2csc(n2)[C@@H](C)NC(=O)C[C@@]2(CC1)SSC(=O)[C@]2(C)O,pIC50,HeLa,5.40
